# Reference: article PMC6001238, “Iterative Chemical Engineering of Vancomycin Leads to Novel Vancomycin Analogs With a High in Vitro Therapeutic Index” (Frontiers in Microbiology, 2018)
# Like-named read-outs stand apart in the source and are kept apart here.
# Columns and labels:
# [1] = system: human T-lymphocyte (CEM) cells; experiment: Cytostatic activity, CEM cell proliferation; assay type: cell-based; details: mean ± SD of three experiments; highest concentration tested 250 µM; 3 days; read-out: Toxicity (IC50) CEM
# How it was run: (§1)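 Test compounds, serially diluted, received an equal volume of cell suspension at 300,000–500,000 cells/mL. After 37°C incubation (2 days for L1210, 3 for CEM, 4 for HeLa), cells were enumerated by Coulter counting and 50%-inhibitory concentrations calculated per cell type.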
# [2] = system: E. faecalis VRE 29; experiment: MIC, broth microdilution, vancomycin-resistant E. faecalis VRE 29 (VanA); assay type: cell-based, Enterococcus faecalis; details: for MIC: Enterococcus faecalis VRE 29 (vancomycin-resistant), read-out: MIC; for MIC-fold improvement vs. vancomycin: VRE 29, ratio of MIC of vancomycin and MIC of analogue
# How it was run: (§2)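 Controls (ultrapure water; broth not inoculated) were included throughout CLSI-compliant broth microdilution. One condition supplemented analogue or comparator with 10 μM vancomycin, final level.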
# [3] = system: E. faecalis VRE 53; experiment: MIC, broth microdilution, vancomycin-resistant E. faecalis VRE 53 (VanA); assay type: cell-based, Enterococcus faecalis; details: for MIC: Enterococcus faecalis VRE 53 (vancomycin-resistant), read-out: MIC; for MIC-fold improvement vs. vancomycin: VRE 53, ratio of MIC of vancomycin and MIC of analogue
# How it was run: as §2
# [4] = system: E. faecalis VRE 37; experiment: MIC, broth microdilution, vancomycin-resistant E. faecalis VRE 37 (VanA); assay type: cell-based, Enterococcus faecalis; details: for MIC: Enterococcus faecalis VRE 37 (vancomycin-resistant), read-out: MIC; for MIC-fold improvement vs. vancomycin: VRE 37, ratio of MIC of vancomycin and MIC of analogue
# How it was run: as §2
# [5] = system: human cervix carcinoma (HeLa) cells; experiment: Cytostatic activity, HeLa cell proliferation; assay type: cell-based; details: mean ± SD of three experiments; highest concentration tested 250 µM; 4 days; read-out: Toxicity (IC50) HeLa
# How it was run: as §1
# [6] = system: S. aureus VRSA; experiment: MIC, broth microdilution, vancomycin-resistant S. aureus (VRSA); assay type: cell-based, Staphylococcus aureus; details: for MIC: Staphylococcus aureus VRSA, read-out: MIC; for MIC-fold improvement vs. vancomycin: VRSA, ratio of MIC of vancomycin and MIC of analogue
# How it was run: as §2
# [7] = system: MRSA KS1; experiment: MIC, broth microdilution, MRSA KS1; assay type: cell-based, Staphylococcus aureus; details: for MIC-fold improvement vs. vancomycin: MRSA KS1, ratio of MIC of vancomycin and MIC of analogue; for MIC: Staphylococcus aureus MRSA KS1, read-out: MIC
# How it was run: as §2
# [8] = system: S. aureus VSSA (ATCC 6538); experiment: MIC, broth microdilution, vancomycin-sensitive S. aureus (VSSA/MSSA, ATCC 6538); assay type: cell-based, Staphylococcus aureus; details: for MIC: Staphylococcus aureus VSSA, read-out: MIC; for MIC-fold improvement vs. vancomycin: VSSA, ratio of MIC of vancomycin and MIC of analogue
# How it was run: as §2
# [9] = system: MRSA KS6; experiment: MIC, broth microdilution, MRSA KS6; assay type: cell-based, Staphylococcus aureus; details: for MIC-fold improvement vs. vancomycin: MRSA KS6, ratio of MIC of vancomycin and MIC of analogue; for MIC: Staphylococcus aureus MRSA KS6, read-out: MIC
# How it was run: as §2
# [10] = system: S. aureus VISA/HIP5827; experiment: MIC, broth microdilution, vancomycin-intermediate S. aureus VISA HIP5827; assay type: cell-based, Staphylococcus aureus; details: for MIC: Staphylococcus aureus VISA/HIP5827, read-out: MIC; for MIC-fold improvement vs. vancomycin: VISA/HIP5827, ratio of MIC of vancomycin and MIC of analogue
# How it was run: as §2
# [11] = system: E. faecalis VRE 6; experiment: MIC, broth microdilution, vancomycin-resistant E. faecalis VRE 6 (VanA); assay type: cell-based, Enterococcus faecalis; details: for MIC: Enterococcus faecalis VRE 6 (vancomycin-resistant), read-out: MIC; for MIC-fold improvement vs. vancomycin: VRE 6, ratio of MIC of vancomycin and MIC of analogue
# How it was run: as §2
# [12] = system: E. faecalis VSE 1; experiment: MIC, broth microdilution, vancomycin-sensitive E. faecalis (VSE 1); assay type: cell-based, Enterococcus faecalis; details: for MIC: Enterococcus faecalis VSE 1 (vancomycin-sensitive), read-out: MIC; for MIC-fold improvement vs. vancomycin: VSE 1, ratio of MIC of vancomycin and MIC of analogue
# How it was run: as §2
# [13] = system: Murine leukemia (L1210) cells; experiment: Cytostatic activity, L1210 cell proliferation; assay type: cell-based; details: mean ± SD of three experiments; highest concentration tested 250 µM; 2 days; read-out: Toxicity (IC50) L1210
# How it was run: as §1
# [14] = system: MRSA KS2; experiment: MIC, broth microdilution, MRSA KS2; assay type: cell-based, Staphylococcus aureus; details: for MIC-fold improvement vs. vancomycin: MRSA KS2, ratio of MIC of vancomycin and MIC of analogue; for MIC: Staphylococcus aureus MRSA KS2, read-out: MIC
# How it was run: as §2
# [15] = system: L1210, CEM and HeLa cell lines; experiment: Cytostatic activity, average or summary over L1210, CEM and HeLa; assay type: cell-based; details: average of L1210, CEM and HeLa; read-out: Toxicity (IC50) Average
# How it was run: as §1
# [16] = system: MRSA KS89; experiment: MIC, broth microdilution, MRSA KS89; assay type: cell-based, Staphylococcus aureus; details: for MIC-fold improvement vs. vancomycin: ratio of MIC of vancomycin and MIC of analogue; for MIC: read-out: MIC
# How it was run: as §2
# [17] = Staphylococcus aureus MRSA KS8 (head; KS89 in title)
MIC [2],MIC-fold improvement vs. vancomycin [2],MIC [3],MIC-fold improvement vs. vancomycin [3],MIC [4],MIC-fold improvement vs. vancomycin [4],MIC [6],MIC-fold improvement vs. vancomycin [6],MIC-fold improvement vs. vancomycin [7],MIC [7],MIC [8],MIC-fold improvement vs. vancomycin [8],MIC-fold improvement vs. vancomycin [9],MIC [9],MIC [10],MIC-fold improvement vs. vancomycin [10],MIC [11],MIC-fold improvement vs. vancomycin [11],SMILES,IC50 [1],IC50 [5],further results
3.13 µM,128,12.5 µM,32,3.13 µM,128,0.78 µM,128,8,0.10 µM,0.10 µM,8,4,0.20 µM,0.39 µM,16,1.56 µM,128,CNC(CC(C)C)C(=O)NC1C(=O)NC(CC(N)=O)C(=O)NC2C(=O)NC3C(=O)NC(C(=O)NC(C(=O)NCC(=O)NC4c5ccccc5-c5ccccc54)c4cc(O)cc(O)c4-c4cc3ccc4O)C(O)c3ccc(c(Cl)c3)Oc3cc2cc(c3OC2OC(CO)C(O)C(O)C2OC2CC(C)(N)C(O)C(C)O2)Oc2ccc(cc2Cl)C1O (stereo not drawn) [Vanc-90],68 ± 8 µM,127 ± 27 µM,MIC [12]: ≤0.05 µM; MIC-fold improvement vs. vancomycin [12]: ≥32; IC50 [13]: 175 ± 106 µM; MIC-fold improvement vs. vancomycin [14]: 8; MIC [14]: 0.10 µM; IC50 [15]: 123 µM; MIC-fold improvement vs. vancomycin ([16]; MRSA KS8): 4; MIC ([16]; Staphylococcus aureus MRSA KS8): 0.20 µM
6.25 µM,64,25 µM,16,6.25 µM,64,0.39 µM,256,8,0.10 µM,0.10 µM,8,8,0.10 µM,0.39 µM,16,1.56 µM,128,CCCCCn1cc(-c2ccc(NC(=O)CNC(=O)C3NC(=O)C4NC(=O)C(NC(=O)C5NC(=O)C(CC(N)=O)NC(=O)C(NC(=O)C(CC(C)C)NC)C(O)c6ccc(c(Cl)c6)Oc6cc5cc(c6OC5OC(CO)C(O)C(O)C5OC5CC(C)(N)C(O)C(C)O5)Oc5ccc(cc5Cl)C4O)c4ccc(O)c(c4)-c4c(O)cc(O)cc43)cc2)nn1 (stereo not drawn) [Vanc-91],107 ± 25 µM,147 ± 11 µM,"MIC [12]: ≤0.05 µM; MIC-fold improvement vs. vancomycin [12]: ≥32; IC50 [13]: 154 ± 93 µM; MIC-fold improvement vs. vancomycin [14]: 8; MIC [14]: 0.10 µM; IC50 [15]: 136 µM; MIC-fold improvement vs. vancomycin ([16]; MRSA KS8 (head; KS89 in title)): 4; MIC [16, 17]: 0.20 µM"
6.25 µM,64,25 µM,16,6.25 µM,64,0.78 µM,128,4,0.20 µM,0.20 µM,4,4,0.20 µM,0.78 µM,8,6.25 µM,32,CCCCCCn1cc(-c2ccc(NC(=O)CNC(=O)C3NC(=O)C4NC(=O)C(NC(=O)C5NC(=O)C(CC(N)=O)NC(=O)C(NC(=O)C(CC(C)C)NC)C(O)c6ccc(c(Cl)c6)Oc6cc5cc(c6OC5OC(CO)C(O)C(O)C5OC5CC(C)(N)C(O)C(C)O5)Oc5ccc(cc5Cl)C4O)c4ccc(O)c(c4)-c4c(O)cc(O)cc43)cc2)nn1 (stereo not drawn) [Vanc-92],31 ± 7 µM,98 ± 12 µM,"MIC [12]: 0.10 µM; MIC-fold improvement vs. vancomycin [12]: 16; IC50 [13]: 95 ± 75 µM; MIC-fold improvement vs. vancomycin [14]: 4; MIC [14]: 0.20 µM; IC50 [15]: 75 µM; MIC-fold improvement vs. vancomycin ([16]; MRSA KS8 (head; KS89 in title)): 4; MIC [16, 17]: 0.20 µM"
